Reference: US7960376B2, “Benzo-fused heterocycles” (priority 2007, dated 2011)

Key:
rat CB2 receptor (rCB2) = biological target: T1, rat CB2 receptor (rCB2) (Rattus norvegicus, UniProt Q9QZN9); assay: cell-based; assay type: cell-based; details: intracellular cAMP, CHO-K1 cells, NKH-477 prestimulated; + agonist, − inverse agonist
T1 sequence (Q9QZN9 1-360): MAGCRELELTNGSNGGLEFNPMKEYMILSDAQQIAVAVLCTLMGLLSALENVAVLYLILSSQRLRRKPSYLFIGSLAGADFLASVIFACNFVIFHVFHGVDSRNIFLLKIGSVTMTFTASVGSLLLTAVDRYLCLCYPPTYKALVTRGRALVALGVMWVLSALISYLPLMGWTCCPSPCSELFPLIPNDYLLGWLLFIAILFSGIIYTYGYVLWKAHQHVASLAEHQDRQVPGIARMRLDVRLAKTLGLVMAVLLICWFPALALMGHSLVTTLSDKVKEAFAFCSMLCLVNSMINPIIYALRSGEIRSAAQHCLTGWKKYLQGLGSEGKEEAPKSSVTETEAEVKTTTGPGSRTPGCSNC

[1] = biological target: human CB2 receptor (hCB2) (Homo sapiens, UniProt P34972); assay: cell-based; assay type: cell-based; details: intracellular cAMP, CHO-K1 cells, NKH-477 prestimulated; + agonist, − inverse agonist
Sequence of human CB2 receptor (hCB2) (P34972 whole entry): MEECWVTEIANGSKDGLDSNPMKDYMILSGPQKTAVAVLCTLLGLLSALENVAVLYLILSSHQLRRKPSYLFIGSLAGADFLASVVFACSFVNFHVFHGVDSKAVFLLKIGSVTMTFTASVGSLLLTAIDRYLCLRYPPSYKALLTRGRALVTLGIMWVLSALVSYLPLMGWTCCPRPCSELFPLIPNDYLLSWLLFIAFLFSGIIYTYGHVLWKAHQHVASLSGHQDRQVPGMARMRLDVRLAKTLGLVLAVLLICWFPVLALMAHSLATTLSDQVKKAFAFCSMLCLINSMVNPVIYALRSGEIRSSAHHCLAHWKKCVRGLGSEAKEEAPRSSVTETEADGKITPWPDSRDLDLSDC

| SMILES | rCB2 EC50 range (rat CB2 receptor (rCB2)) | hCB2 EC50 range [1] |
| --- | --- | --- |
| CS(=O)(=O)N1CCSc2ccc(C(=O)NC3CCCC3)cc21 [Example 55, N-cyclopentyl-4-(methylsulfonyl)-3,4-dihydro-2H-benzo[b][1,4]thiazine-6-carboxamide] | +D | +E |
| CC(C)NC(=O)c1ccc2c(c1)N(C(=O)c1ccc(Cl)cc1)CCS2 [Example 29] | +D | +D |
| O=C(NNC(=O)c1ccc2c(c1)N(S(=O)(=O)c1ccc(C(F)(F)F)cc1)CCS2)c1ccccc1 [Example 79, N′-benzoyl-4-(4-(trifluoromethyl)phenylsulfonyl)-3,4-dihydro-2H-benzo[b][1,4]thiazine-6-carbohydrazide] | +D | +D |
| CC(C)NC(=O)c1ccc2c(c1)N(S(=O)(=O)c1ccccc1)CCS2 [Example 52, N-isopropyl-4-(phenylsulfonyl)-3,4-dihydro-2H-benzo[b][1,4]thiazine-6-carboxamide] | +A | +C |
| CC(C)(C)NC(=O)c1ccc2c(c1)N(S(C)(=O)=O)CCS2 [Example 53, N-tert-butyl-4-(methylsulfonyl)-3,4-dihydro-2H-benzo[b][1,4]thiazine-6-carboxamide] | +D | +E |
| O=C(c1ccc2c(c1)N(S(=O)(=O)c1ccc(C(F)(F)F)cc1)CCS2)N1CCCC1 [Example 74, pyrrolidin-1-yl(4-(4-(trifluoromethyl)phenylsulfonyl)-3,4-dihydro-2H-benzo[b][1,4]thiazin-6-yl)methanone] | −C | +E |
| CC(C)NC(=O)c1ccc2c(c1)N(C(=O)c1ccc(F)cc1)CCS2 [Example 27] | +D | +E |
| O=S(=O)(c1ccc(C(F)(F)F)cc1)N1CCSc2ccc(-c3nc(-c4cccc(C(F)(F)F)c4)no3)cc21 [Example 80, 3-(3-(trifluoromethyl)phenyl)-5-(4-(4-(trifluoromethyl)phenylsulfonyl)-3,4-dihydro-2H-benzo[b][1,4]thiazin-6-yl)-1,2,4-oxadiazole] | – | +D |
| CC(C)(C)NC(=O)c1ccc2c(c1)N(C(=O)c1ccccc1)CCS2 [Example 9, 4-benzoyl-N-tert-butyl-3,4-dihydro-2H-benzo[b][1,4]thiazine-6-carboxamide] | −D | – |
| Cc1nnc(-c2ccc3c(c2)N(S(=O)(=O)c2cn(C)cn2)CCS3)o1 [Example 106, 2-methyl-5-(4-(1-methyl-1H-imidazol-4-ylsulfonyl)-3,4-dihydro-2H-benzo[b][1,4]thiazin-6-yl)-1,3,4-oxadiazole] | +D | +E |
| CC(C)CNC(=O)c1ccc2c(c1)N(S(C)(=O)=O)CCS2 [Example 54, N-isobutyl-4-(methylsulfonyl)-3,4-dihydro-2H-benzo[b][1,4]thiazine-6-carboxamide] | +D | +E |
| O=S(=O)(c1ccc(C(F)(F)F)cc1)N1CCSc2ccc(-c3ncc(-c4ccccc4)[nH]3)cc21 [Example 107, 6-(5-phenyl-1H-imidazol-2-yl)-4-(4-(trifluoromethyl)phenylsulfonyl)-3,4-dihydro-2H-benzo[b][1,4]thiazine] | +B | +C |
| COCCCNC(=O)c1ccc2c(c1)N(C(=O)c1ccc(F)cc1)CCS2 [Example 17] | −E | – |
| CC1(C)CCN(S(=O)(=O)c2ccc(F)cc2)c2cc(C(=O)N3CCCC3)ccc2S1 [Example 102, (5-(4-fluorophenyl-sulfonyl)-2,2-dimethyl-2,3,4,5-tetrahydro-benzo[b][1,4]thiazepin-7-yl)(pyrrolidin-1-yl)-methanone] | +C | – |
| O=C(c1ccc2c(c1)N(S(=O)(=O)c1ccc(C(F)(F)F)cc1)CCS2)N1CCOCC1 [Example 76, morpholino(4-(4-(trifluoromethyl)phenylsulfonyl)-3,4-dihydro-2H-benzo[b][1,4]thiazin-6-yl)methanone] | +C | +D |
| COCCCNC(=O)c1ccc2c(c1)N(C(=O)c1ccc(C)cc1)CCS2 [Example 18, N-(3-methoxypropyl)-4-(4-methylbenzoyl)-3,4-dihydro-2H-benzo[b][1,4]thiazine-6-carboxamide] | −E | −E |
| CN(C)C(=O)c1ccc2c(c1)N(S(=O)(=O)c1ccc(F)cc1)CCS2 [Example 69, 4-(4-fluorophenylsulfonyl)-N,N-dimethyl-3,4-dihydro-2H-benzo[b][1,4]thiazine-6-carboxamide] | +D | +E |
| CC(C)CNC(=O)c1ccc2c(c1)N(S(=O)(=O)c1ccccc1)CCS2 [Example 41, N-isobutyl-4-(phenylsulfonyl)-3,4-dihydro-2H-benzo-[b][1,4]thiazine-6-carboxamide] | +A | +C |

| SMILES | rCB2 EC50 range (rat CB2 receptor (rCB2)) | hCB2 EC50 range [1] |
| --- | --- | --- |
| CC(C)C(=O)N1CCSc2ccc(C(=O)NC(C)(C)C)cc21 [Example 34, N-tert-butyl-4-isobutyryl-3,4-dihydro-2H-benzo[b][1,4]thiazine-6-carboxamide] | +D | +D |
| O=C(NC1CCCC1)c1ccc2c(c1)N(S(=O)(=O)c1ccccc1)CCS2 [Example 44, N-cyclopentyl-4-(phenylsulfonyl)-3,4-dihydro-2H-benzo[b][1,4]thiazine-6-carboxamide] | +B | +C |
| CC(C)NC(=O)c1ccc2c(c1)N(C(=O)c1ccccc1)CCS2 [Example 26, 4-benzoyl-N-isopropyl-3,4-dihydro-2H-benzo[b][1,4]thiazine-6-carboxamide] | −E | – |
| CC1(C)CCN(S(=O)(=O)c2ccccc2)c2cc(C(=O)N3CCOCC3)ccc2S1 [Example 94, (2,2-dimethyl-5-(phenylsulfonyl)-2,3,4,5-tetrahydro-benzo[b][1,4]thiazepin-7-yl)(morpholino)-methanone] | +D | +E |
| COCCCNC(=O)c1ccc2c(c1)N(C(=O)c1ccc(OC)cc1)CCS2 [Example 20] | – | −E |
| O=C(c1ccc2c(c1)N(S(=O)(=O)c1ccc(C(F)(F)F)cc1)CCS2)N1CCCCC1 [Example 75, piperidin-1-yl(4-(4-(trifluoromethyl)phenylsulfonyl)-3,4-dihydro-2H-benzo[b][1,4]thiazin-6-yl)methanone] | −C | – |
| O=C(NC1CCCC1)c1ccc2c(c1)N(C(=O)c1ccc(Cl)cc1)CCS2 [Example 15, N-cyclopentyl-4-(4-chlorobenzoyl)-3,4-dihydro-2H-benzo[b] [1,4]thiazine-6-carboxamide] | −E | – |
| CN(C)C(=O)c1ccc2c(c1)N(S(=O)(=O)c1ccc(C(F)(F)F)cc1)CCS2 [Example 72, N,N-dimethyl-4-(4-(trifluoromethyl)phenylsulfonyl)-3,4-dihydro-2H-benzo[b][1,4]thiazine-6-carboxamide] | +C | +C |
| CC(=O)N1CCSc2ccc(C(=O)NC3CCCC3)cc21 [Example 35, 4-acetyl-N-cyclopentyl-3,4-dihydro-2H-benzo[b][1,4]thiazine-6-carboxamide] | −E | +E |
| O=C(c1ccc2c(c1)N(S(=O)(=O)c1ccccc1)CCS2)N1CCCC1 [Example 66, (4-(phenylsulfonyl)-3,4-dihydro-2H-benzo[b][1,4]thiazin-6-yl)(pyrrolidin-1-yl)methanone] | +D | +D |
| CCC(=O)N1CCSc2ccc(C(=O)NC3CCCC3)cc21 [Example 36, N-cyclopentyl-4-propionyl-3,4-dihydro-2H-benzo[b][1,4]thiazine-6-carboxamide] | −E | +E |
| O=S(=O)(c1ccc(C(F)(F)F)cc1)N1CCSc2ccc(-c3nc(-c4ccccn4)no3)cc21 [Example 81, 3-(pyridin-2-yl)-5-(4-(4-(trifluoromethyl)phenylsulfonyl)-3,4-dihydro-2H-benzo[b][1,4]thiazin-6-yl)-1,2,4-oxadiazole] | +A | +B |
| CCC(=O)N1CCSc2ccc(C(=O)NC(C)(C)C)cc21 [Example 33, N-tert-butyl-4-propionyl-3,4-dihydro-2H-benzo[b][1,4]thiazine-6-carboxamide] | – | +D |
| COCCCNC(=O)c1ccc2c(c1)N(C(=O)c1ccc(Cl)cc1)CCS2 [Example 19] | −E | −E |
| CC(C)(C)NC(=O)c1ccc2c(c1)N(S(=O)(=O)c1ccccc1)CCS2 [Example 46, N-tert-butyl-4-(phenylsulfonyl)-3,4-dihydro-2H-benzo[b][1,4]thiazine-6-carboxamide] | +B | +B |
| COCCCNC(=O)c1ccc2c(c1)N(C(=O)C(C)C)CCS2 [Example 38, 4-isobutyryl-N-(3-methoxypropyl)-3,4-dihydro-2H-benzo[b][1,4]thiazine-6-carboxamide] | −E | – |
| COCCCNC(=O)c1ccc2c(c1)N(S(C)(=O)=O)CCS2 [Example 56, N-(3-methoxypropyl)-4-(methylsulfonyl)-3,4-dihydro-2H-benzo[b][1,4]thiazine-6-carboxamide] | +E | – |
| CC(=O)N1CCSc2ccc(C(=O)NC(C)(C)C)cc21 [Example 32, 4-acetyl-N-tert-butyl-3,4-dihydro-2H-benzo[b][1,4]thiazine-6-carboxamide] | −E | – |
